The star is where a group is joined. Cbz = O=C(OCc1ccccc1)*; CH2F = FC*
Tests used:
wild-type mice [1] = assay: Alu RNA- or pAlu-induced RPE degeneration after subretinal injection (fundus photographs, ZO-1 flat mounts); format: in vivo; conditions: test agent intravitreous; for pAlu-induced RPE degeneration: subretinal pAlu
Method: Subretinal injection and imaging. Subretinal injections (1 μL) in mice were performed using a Pico-Injector (PLI-100, Harvard Apparatus). In vivo transfection of plasmids was achieved using 10% Neuroporter (Genlantis). Fundus imaging was performed on a TRC-50 IX camera (Topcon) linked to a digital imaging system (Sony). Immunolabeling of RPE flat mounts was performed using antibodies against human zonula occludens-1 (Invitrogen).
(§1) Fundus photography. Retinal photographs of dilated mouse eyes were taken with a TRC-50 IX camera (Topcon) linked to a digital imaging system (Sony).
(§2) Immunolabeling. Human eyes fixed in 2-4% paraformaldehyde were prepared as eyecups, cryoprotected in 30% sucrose, embedded in optimal cutting temperature compound (Tissue-Tek OCT; Sakura Finetek), and cryosectioned into 10 μm sections. Depigmentation was achieved using 0.25% potassium permanganate and 0.1% oxalic acid. Immunohistochemical staining was performed with the rabbit antibody against NLRP3 (1:100, Sigma Aldrich) or rabbit antibody against Caspase-1 (prediluted, AbCam). Isotype IgG was substituted for the primary antibody to assess the specificity of the staining. Bound antibody was detected with biotin-conjugated secondary antibodies, followed by incubation with ABC reagent and visualized by Vector Blue (Vector Laboratories). Levamisole (Vector Laboratories) was used to block endogenous alkaline phosphatase activity. Slides were washed in PBS, counterstained with neutral red (Fisher Scientific), rinsed with deionized water, air dried, and then mounted in Vectamount (Vector Laboratories). Fluorescent labeling of human tissue was performed with the rabbit antibody against PYCARD (1:50, Clone N-15, Santa Cruz Biotechnology). Immunolabeling was visualized by fluorescently conjugated anti-rabbit secondary antibody (Invitrogen). Tissue autofluorescence was quenched by incubating the sections in 0.3% Sudan black (Fisher Scientific). Sections were mounted in Vectashield with DAPI (Vector Laboratories). Mouse RPE/choroid flat mounts were fixed with 4% paraformaldehyde or 100% methanol, stained with rabbit antibodies against human zonula occludens-1 (1:100, Invitrogen) and visualized with Alexa594 (Invitrogen). All images were obtained using the Leica SP-5 or Zeiss Axio Observer Z1 microscopes.
Subretinal injection. Subretinal injections (1 μL) in mice were performed using a Pico-Injector (PLI-100, Harvard Apparatus). In vivo transfection of plasmids coding for two different Alu sequences (pAlu) or empty control vector (pNull) (Bennett et al., 2008; Kaneko et al., 2011; Shaikh et al., 1997) was achieved using 10% Neuroporter (Genlantis). AAV1-BEST1-Cre (Alexander and Hauswirth, 2008) or AAV1-BEST1-GFP were injected at […] pfu/mL and in vitro transcribed Alu RNA was injected at 0.3 mg/mL.
(§3) Drug treatments. siRNAs formulated in siRNA buffer (20 mM KCL, 0.2 mM MgCl2 in HEPES buffer at pH 7.5; Dharmacon) or phosphate buffered saline (PBS; Sigma-Aldrich); the TLR4 antagonist Ultra Pure Rhodobacter sphaeroides LPS (LPS-RS, InvivoGen), a peptide inhibitor of MyD88 homodimerization IMG-2005 (IMGENEX), control inhibitor (IMGENEX), recombinant IL-18 (Medical & Biological Laboratories), neutralizing rat antibodies against mouse IL-1β (IMGENEX), neutralizing rat antibodies against mouse IL-18 (Medical & Biological Laboratories), isotype control IgGs (R&D Systems or eBioscience as appropriate), Caspase-1 inhibitor Z-WEHD-FMK (R&D Systems), Caspase-3 inhibitor Z-DEVD-FMK (R&D Systems), Caspase control inhibitor Z-FA-FMK (R&D Systems), (2R,4R)-APDC (Enzo Life Sciences), Glipizide (Sigma-Aldrich), Glyburide (Sigma-Aldrich), and P2X7 receptor antagonist A438079 (Tocris Bioscience) were dissolved in phosphate buffered saline (PBS; Sigma-Aldrich) or dimethyl sulfoxide (DMSO; Sigma-Aldrich), and injected into the vitreous humor in a total volume of 1 μL with a 33-gauge Exmire microsyringe (Ito Corporation). […]

human RPE cells = system: human RPE cells
Method: Cell viability. Cell viability measurements were performed using the CellTiter 96 AQueous One Solution Cell Proliferation Assay (Promega) in according to the manufacturer's instructions.
Cell culture. All cell cultures were maintained at 37° C. and 5% CO2. Primary mouse RPE cells were isolated as previously described (Yang et al., 2009) and grown in Dulbecco Modified Eagle Medium (DMEM) supplemented with 20% FBS and standard antibiotics concentrations. Primary human RPE cells were isolated as previously described (Yang et al., 2008) and maintained in DMEM supplemented with 10% FBS and antibiotics. HeLa cells were maintained in DMEM supplemented with 20% FBS and standard antibiotics concentrations. THP-1 cells were cultured in RPMI 1640 medium supplemented with 10% FBS and antibiotics.
Transient transfection. Human or mouse RPE cells were transfected with pUC19, pAlu, pCDNA3.1/Dicer-FLAG, pCDNA3.1, Alu RNA, NLRP3 siRNA sense, PYCARD siRNA sense, MyD88 siRNA sense, DICER1 antisense oligonucleotide (AS), control (for DICER1) AS, Alu AS, and control (for Alu) AS using Lipofectamine 2000 (Invitrogen) according to the manufacturer's instructions.
Cell viability. MTS assays were performed using the CellTiter 96 AQueous One Solution Cell Proliferation Assay (Promega) according to the manufacturer's instructions. For examining the cytoprotective effect of glycine in Alu RNA induced cell death, human RPE cells were transfected with pNull/pAlu. At 6 h post-transfection the cells were incubated with complete media containing glycine (5 mM) or vehicle, and cell viability was assessed after 24 h. Similarly, human RPE cells primed with LPS (5 μg/ml for 6 h) were treated with ATP (25 μM) in the presence of glycine containing media (5 mM). 30 min post ATP cell viability was assessed as described above.

wild-type mice [2] = assay: Laser-induced choroidal neovascularization; format: in vivo; conditions: intravitreous injection
IRAK1/4 = assay: Western blot of phosphorylated IRAK1/4 in human RPE cells; format: cell-based; conditions: normalized to Vinculin
Method: (§4) Protein abundance and activity. Protein abundance was assessed by Western blot analysis using primary antibodies recognizing Caspase-1 (1:500; Invitrogen), pIRAK1 (1:500; Thermo Scientific), pIRAK4 (1:500, Abbomax, Inc), PYCARD (1:200, Santa Cruz Biotechnology), NLRP3 (1:500, Enzo Life Sciences) and Vinculin (1:1,000; Sigma-Aldrich). Caspase-1 activity was visualized using Caspalux1 E1D2 (OncoImmunin) reagent according to the manufacturer's instructions.
Western blotting. Tissues or cells were homogenized in lysis buffer (10 mM Tris base, pH 7.4, 150 mM NaCl, 1 mM EDTA, 1 mM EGTA, 1% Triton X-100, 0.5% NP-40, protease and phosphatase inhibitor cocktail (Roche)). Protein concentrations were determined using a Bradford assay kit (Bio-Rad) with bovine serum albumin as a standard. Proteins (40-100 μg) were run on NuPAGE Bis-Tris gels (Invitrogen) and transferred to Immun-Blot PVDF membranes (Bio-Rad). Cells were scraped in hot Laemmli buffer (62.5 mM Tris base, pH 6.8, 2% SDS, 5% 2-Mercaptoethanol, 10% Glycerol, 0.01% Bromophenol Blue). Samples were boiled and run on 4-20% NuPAGE Tris-Glycine gels (Invitrogen). […] Protein loading was assessed by immunoblotting using an anti-Vinculin antibody (1:1,000; Sigma-Aldrich). […]

Caspase-1 = biological target: T1, Caspase-1 (Homo sapiens, UniProt P29466); assay: Caspase-1 activation in cultured cells (western blot p20, Caspalux1 substrate cleavage); format: cell-based; conditions: human RPE cells; Caspalux1
T1 construct: endogenous in cells; host or cells: primary human RPE cells; also THP-1 and HeLa cells
T1 sequence (P29466 120-297 limits assumed): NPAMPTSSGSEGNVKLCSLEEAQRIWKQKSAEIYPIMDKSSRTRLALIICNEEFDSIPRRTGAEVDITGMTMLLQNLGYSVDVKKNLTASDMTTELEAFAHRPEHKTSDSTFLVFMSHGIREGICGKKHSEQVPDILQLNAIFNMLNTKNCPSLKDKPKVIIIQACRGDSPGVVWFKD
T1 sequence (P29466 317-404 limits assumed): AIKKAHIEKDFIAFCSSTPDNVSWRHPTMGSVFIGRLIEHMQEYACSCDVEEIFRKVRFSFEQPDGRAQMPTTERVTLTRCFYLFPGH
Method: as §4
Western blotting. Tissues or cells were homogenized in lysis buffer (10 mM Tris base, pH 7.4, 150 mM NaCl, 1 mM EDTA, 1 mM EGTA, 1% Triton X-100, 0.5% NP-40, protease and phosphatase inhibitor cocktail (Roche)). Protein concentrations were determined using a Bradford assay kit (Bio-Rad) with bovine serum albumin as a standard. Proteins (40-100 μg) were run on NuPAGE Bis-Tris gels (Invitrogen) and transferred to Immun-Blot PVDF membranes (Bio-Rad). Cells were scraped in hot Laemmli buffer (62.5 mM Tris base, pH 6.8, 2% SDS, 5% 2-Mercaptoethanol, 10% Glycerol, 0.01% Bromophenol Blue). Samples were boiled and run on 4-20% NuPAGE Tris-Glycine gels (Invitrogen). The transferred membranes were blocked for 1 h at RT and incubated with antibodies against human Caspase-1 (1:500; Invitrogen), mouse Caspase1 (1:500; MBL), NLRP3 (1:1000; Enzo Life Sciences), PYCARD (1:1000, RayBiotech), phospho-IRAK1 (S376) (1:500, Thermo Scientific), phospho-IRAK4 (T345) (1:500, AbboMax), DICER1 (1:2,000; Bethyl), MyD88 (1:1,000; Cell Signaling), and mouse IL-18 (1:200; MBL) at 4° C. overnight. Protein loading was assessed by immunoblotting using an anti-Vinculin antibody (1:1,000; Sigma-Aldrich). The secondary antibodies were used (1:5,000) for 1 h at RT. […]
Caspase-1 activity. […] Caspalux1E1D2 signal was quantified reading the fluorescence (excitation 552 nm, emission 580 nm) using a Synergy 4 reader (Biotek). Quantification of fluorescence from images was performed by converting images into grayscale in Adobe Photoshop CS5, and measuring the integrated density of black and white images using ImageJ software (NIH) (Bogdanovich et al., 2008).

IL-18 = assay: Western blot of IL-18 maturation in RPE cell lysates of wild-type mice; format: in vivo; conditions: inhibitor intravitreous
Method: as §3
Western blotting. […] Protein concentrations were determined using a Bradford assay kit (Bio-Rad) with bovine serum albumin as a standard. […] Protein loading was assessed by immunoblotting using an anti-Vinculin antibody (1:1,000; Sigma-Aldrich). […]

Dicer1f/f mice = assay: RPE degeneration induced by subretinal AAV1-BEST1-Cre (DICER1 loss); format: in vivo; conditions: inhibitor intravitreous
Method: as §2, with “Sections were mounted in Vectashield with DAPI (Vector Laboratories). Mouse RPE/choroid flat mounts were fixed with 4% paraformaldehyde or 100% methanol, stained with rabbit antibodies against human zonula occludens-1 (1:100, Invitrogen) and visualized with Alexa594 (Invitrogen). All images were obtained using the Leica SP-5 or Zeiss Axio Observer Z1 microscopes.” left out

mice = assay: RPE degeneration induced by intravitreous recombinant IL-18; format: in vivo; conditions: for RPE degeneration induced by recombinant IL-18: intravitreous
Method: as §1
as §2, with “microscopes. […]” for “microscopes.”

Caspase-3 = Caspase-3 activation in the RPE of wild-type mice; format: in vivo; conditions: IL-18 alone
Method: Drug treatments. siRNAs formulated in siRNA buffer (20 mM KCL, 0.2 mM MgCl2 in HEPES buffer at pH 7.5; Dharmacon) or phosphate buffered saline (PBS; Sigma-Aldrich); the TLR4 antagonist Ultra Pure Rhodobacter sphaeroides LPS (LPS-RS, InvivoGen), a peptide inhibitor of MyD88 homodimerization IMG-2005 (IMGENEX), control inhibitor (IMGENEX), recombinant IL-18 (Medical & Biological Laboratories), neutralizing rat antibodies against mouse IL-1β (IMGENEX), neutralizing rat antibodies against mouse IL-18 (Medical & Biological Laboratories), isotype control IgGs (R&D Systems or eBioscience as appropriate), Caspase-1 inhibitor Z-WEHD-FMK (R&D Systems), Caspase-3 inhibitor Z-DEVD-FMK (R&D Systems), Caspase control inhibitor Z-FA-FMK (R&D Systems), (2R,4R)-APDC (Enzo Life Sciences), Glipizide (Sigma-Aldrich), Glyburide (Sigma-Aldrich), and P2X7 receptor antagonist A438079 (Tocris Bioscience) were dissolved in phosphate buffered saline (PBS; Sigma-Aldrich) or dimethyl sulfoxide (DMSO; Sigma-Aldrich), and injected into the vitreous humor in a total volume of 1 μL with a 33-gauge Exmire microsyringe (Ito Corporation). […] As a control, Luc siRNA-chol (17+2 nt) was used with identical dosages.
Caspase-3 activity. The caspase-3 activity was measured using Caspase-3 Fluorimetric Assay (R&D Systems) according to the manufacturer's instruction.

Clc1cccc(-c2nnnn2Cc2cccnc2)c1Cl [A438079]
pAlu-induced RPE degeneration (wild-type mice [1]): blocked

O=C(Nc1nc2ccccc2n1CCN1CCOCC1)c1cccc([N+](=O)[O-])c1 [N-(2-Morpholinylethyl)-2-(3-nitrobenzoylamido)-benzimidazole]
Alu RNA-induced RPE degeneration (wild-type mice [1]; subretinal Alu RNA): blocked
Alu RNA-induced cytotoxicity, viability of human RPE cells (human RPE cells): protects
pAlu-induced cytotoxicity, viability of human RPE cells (human RPE cells): protects
laser-induced choroidal neovascularization (wild-type mice [2]): reduced

COc1ccc(Cl)cc1C(=O)NCCc1ccc(S(=O)(=O)NC(=O)NC2CCCCC2)cc1 [glyburide, Glyburide]
pAlu-induced RPE degeneration (wild-type mice [1]): inhibited

NCC(=O)O [glycine]
human RPE cell death induced by LPS+ATP (human RPE cells; LPS 5 μg/ml 6 h, ATP 25 μM, glycine 5 mM, 30 min post ATP): inhibited

Cbz-WEHD-CH2F
Alu RNA-induced phosphorylation of IRAK1/4 (IRAK1/4): reduced
Alu RNA-induced fluorescent substrate cleavage (Caspase-1 activity) (Caspase-1): blocked
pAlu-induced RPE degeneration (wild-type mice [1]): blocked
pAlu-induced IL-18 maturation (IL-18): blocked
AAV1-BEST1-Cre-induced RPE degeneration (Dicer1f/f mice): blocked

Z-DEVD-FMK
IL-18-induced RPE degeneration (mice; wild-type mice, inhibitor intravitreous): blocked

B1: Recombinant IL-18: recombinant IL-18 (Medical & Biological Laboratories) (protein, UniProt P70380 36-192, looked up)
Interleukin-18: NFGRLHCTTAVIRNINDQVLFVDKRQPVFEDMTDIDQSASEPQTRLIIYMYKDSEVRGLAVTLSVKDSKMSTLSCKNKIISFEEMDPPENIDDIQSDLIFFQKRVPGHNKMEFESSLYEGHFLACQKEDDAFKLILKKKDENGDKSVMFTLTNLHQS
RPE degeneration induced by recombinant IL-18 (mice; Casp1−/− mice): induced RPE degeneration
RPE degeneration induced by recombinant IL-18 (mice; wild-type mice): induced RPE degeneration
Caspase-3 activation in the RPE (Caspase-3): induced Caspase-3 activation
